The record followed here is PMC1930153, “Engineering the Melanocortin-4 Receptor to Control Constitutive and Ligand-Mediated Gs Signaling In Vivo” (PLoS ONE, 2007).

Holding throughout (assay type): cell-based
In one test the target is T1, L106P-MC4R (Rm1) (Homo sapiens, UniProt P32245, L106P).
T1 construct: prolactin signal peptide (N); green fluorescent protein (N); expressed in transfected cells; host or cells: HEK293
Description: cAMP assay, L106P MC4R (Rm1) in HEK293 cells. The protocol:
(§1) HEK293 cells were maintained in Dulbecco's modified Eagle's medium supplemented with 10% fetal bovine serum containing L-glutamine. […] For the internalization assays, stable cell lines expressing wild-type or RASSL-MC4R were generated by G418-mediated selection (10 µg/ml) of clones expressing the neomycin-resistance gene cotransfected with MC4R. Stable cell lines were maintained by selection with 5 µg/ml G418.
(§2) cAMP production was measured with an ultra sensitive enzymatic cAMP assay (CatchPoint, Molecular Devices, Sunnyvale, CA). Transiently transfected cells were plated at 1×10^5/well into 96-well plates coated with poly-D-lysine (Sigma). Forty-eight h after transfection, cells were rinsed in Krebs-Ringer bicarbonate buffer containing glucose (Sigma) and incubated in pre-stimulation buffer containing 0.75 mM 3-isobutyl-1-methylxanthine in the same buffer for 10 min at room temperature. […] The cells were lysed, and cAMP accumulation was measured according to the CatchPoint protocol. cAMP generated under the different experimental conditions was interpolated from a cAMP standard curve for each experiment. Four replicates were used for each condition, and all experiments were repeated at least three times. Emax and EC50 values were calculated with SoftMax Pro. cAMP measurements were performed on transiently transfected cells.
(Changes in cAMP serve as a functional read-out for many G protein-coupled receptors.)

Test [1] deals with T2, wild-type MC4R (Homo sapiens, UniProt P32245).
T2 construct: prolactin signal peptide (N); expressed in transfected cells; host or cells: HEK293
Description: Cell-surface expression ELISA, transiently transfected HEK293 cells, wild-type MC4R. The following applies: WT MC4R, transient transfection; α-MSH 1 µM. On the procedure:
(§3) HEK293 cells were maintained in Dulbecco's modified Eagle's medium supplemented with 10% fetal bovine serum containing L-glutamine. Wild-type and mutant MC4R were transfected into HEK 293 cells with Lipofectamine (Invitrogen). For the internalization assays, stable cell lines expressing wild-type or RASSL-MC4R were generated by G418-mediated selection (10 µg/ml) of clones expressing the neomycin-resistance gene cotransfected with MC4R. Stable cell lines were maintained by selection with 5 µg/ml G418.
(§4) Cell-surface expression of receptors was measured with an enzyme-linked immunosorbent assay (ELISA) that detects the extracellular FLAG tag. Transiently transfected cells were plated at 1×10^5/well into 96-well plates coated with poly-D-lysine (Sigma). […] Forty-eight h after transfection, cells were fixed in 4% paraformaldehyde (Sigma) for 10 min at 4°C. After two washes in phosphate-buffered saline, the cells were incubated in 1 µg/ml M1 anti-FLAG antibody (Sigma) for 2 h at room temperature, washed twice in phosphate-buffered saline, and incubated for 1 h at room temperature with horseradish peroxidase–conjugated goat-anti-mouse (1∶1000, BioRad, Chicago, IL). […] After 15–60 min, the optical density was read at 405 nm in a spectrophotometer. […]
Background: ELISA stands for enzyme-linked immunosorbent assay.

For another test, the target named is T3, MC4R N97D (Homo sapiens, UniProt P32245, N97D).
T3 construct: prolactin signal peptide (N); green fluorescent protein (N); expressed in transfected cells; host or cells: HEK293
Description: cAMP assay, N97D MC4R mutant in HEK293 cells. The protocol: as §3
as §2, with “Four replicates were used for each condition, and all experiments were repeated at least three times.” left out

The next test has as its target T4, MC4R D126A (Homo sapiens, UniProt P32245, D126A).
T4 construct: prolactin signal peptide (N); green fluorescent protein (N); expressed in transfected cells; host or cells: HEK293
Briefly: cAMP assay, D126A MC4R mutant in HEK293 cells. On the procedure: as §3
as §2, with “Four replicates were used for each condition, and all experiments were repeated at least three times.” left out

The next test concerns the target T5, MC4R E100A (Homo sapiens, UniProt P32245, E100A).
T5 construct: prolactin signal peptide (N); green fluorescent protein (N); expressed in transfected cells; host or cells: HEK293
Briefly: cAMP assay, E100A MC4R mutant in HEK293 cells. On the procedure: as §3
as §2, with “Four replicates were used for each condition, and all experiments were repeated at least three times.” left out

In the next test the target is T6, D122A-MC4R (Rm2) (Homo sapiens, UniProt P32245, D122A).
T6 construct: prolactin signal peptide (N); green fluorescent protein (N); expressed in transfected cells; host or cells: HEK293
Description: cAMP assay, D122A MC4R (Rm2) in HEK293 cells. The protocol: as §1, §2

In the next test the target is T7, MC4R I102S (Homo sapiens, UniProt P32245, I102S).
T7 construct: prolactin signal peptide (N); green fluorescent protein (N); expressed in transfected cells; host or cells: HEK293
Description: cAMP assay, I102S MC4R mutant in HEK293 cells. The protocol:
as §3
as §2, with “Four replicates were used for each condition, and all experiments were repeated at least three times.” left out

A further test has as its target T8, MC4R S127L (Homo sapiens, UniProt P32245, S127L).
T8 construct: prolactin signal peptide (N); green fluorescent protein (N); expressed in transfected cells; host or cells: HEK293
Briefly: cAMP assay, S127L MC4R mutant in HEK293 cells. On the procedure: as §3
as §2, with “Four replicates were used for each condition, and all experiments were repeated at least three times.” left out

Test [2] concerns the target T2, wild-type MC4R. Description: Receptor internalization (cell-surface FLAG ELISA), HEK293 cells stably expressing wild-type MC4R. The following applies: WT MC4R, 2-h exposure. The protocol: as §3, §4
In another test the target is T9, Rm2 (D122A) (Homo sapiens, UniProt P32245, D122A).
T9 construct: prolactin signal peptide (N); green fluorescent protein (N); expressed in transfected cells; host or cells: HEK293
Description: Receptor internalization (cell-surface FLAG ELISA), HEK293 cells stably expressing Rm2. The protocol:
as §3, §4

The target of test [3] is T2, wild-type MC4R. Description: cAMP assay, wild-type MC4R in transiently transfected HEK293 cells. The protocol:
as §1, §2

Another test concerns the target T10, Rm1 (L106P) (Homo sapiens, UniProt P32245, L106P).
T10 construct: prolactin signal peptide (N); green fluorescent protein (N); expressed in transfected cells; host or cells: HEK293
Briefly: Receptor internalization (cell-surface FLAG ELISA), HEK293 cells stably expressing Rm1. On the procedure: as §3, §4

In another test the target is T11, MC4R G98R (Homo sapiens, UniProt P32245, G98R).
T11 construct: prolactin signal peptide (N); green fluorescent protein (N); expressed in transfected cells; host or cells: HEK293
Description: cAMP assay, G98R MC4R mutant in HEK293 cells. On the procedure: as §3
as §2, with “Four replicates were used for each condition, and all experiments were repeated at least three times.” left out

On to “agouti-related peptide (SSRRCVRLHESCLGQQVPCCDPCATCYCRFFNAFCYCRKLGTAMNPCSRT; UniProt O00253 83-132, looked up) [AGRP]”, for which the “Antagonism when co-administered with THIQ” value with L106P-MC4R (Rm1) (Rm1, cAMP) was “full antagonist”. Moreover, the “Effect on cell-surface expression in words” value in the test with wild-type MC4R [1] is “stabilized receptor expression on the cell surface”.

`O=C(N[C@H](Cc1ccc(Cl)cc1)C(=O)N1CCC(Cn2cncn2)(C2CCCCC2)CC1)[C@H]1Cc2ccccc2CN1` (relative stereo) [THIQ]: the “Emax (% of WT)” value is listed as 43.1±3.1 % of WT on MC4R N97D; 50.7±3.6 % of WT on MC4R D126A; 44.54±4.9 % of WT on MC4R E100A; 90.3±6.2 % of WT on D122A-MC4R (Rm2) (cAMP, D122A (Rm2)); 73.4±14.8 % of WT on L106P-MC4R (Rm1) (cAMP, L106P (Rm1)); 49.2±2.2 % of WT on MC4R I102S. For the same molecule, the “Emax (% of WT)” value at MC4R S127L is 21.7±3.5 % of WT; on wild-type MC4R [3] (cAMP, 2 h stimulation), 100 % of WT; on MC4R G98R, 2.6±0.6 % of WT. Also, the “Internalization in words (time course)” value on wild-type MC4R [2] (1 µM ligand) is “did not result in internalization”; at Rm1 (L106P) (Rm1, 1 µM ligand, 2-h exposure), “did not internalize”. The “Receptor sequestration in words” value at wild-type MC4R [2] (increasing concentrations) is listed as “did not cause sequestration”. In addition, the “Decrease in cell-surface expression” value at Rm2 (D122A) (Rm2, 1 µM ligand) is “about 20%”. The “Receptor sequestration/internalization in words” value is “did not cause sequestration” on Rm2 (D122A) (Rm2, 2-h exposure, increasing concentrations) and “did not cause sequestration” at Rm1 (L106P) (Rm1, 2-h exposure, increasing concentrations).

As to `CSCC[C@H](NC(=O)[C@H](CCCNC(=N)N)NC(=O)[C@H](Cc1ccc(O)cc1)NC(=O)[C@@H]1CCCN1C(=O)CNC(=O)[C@H](CCC(=O)O)NC(=O)[C@H](CC(=O)O)NC(=O)[C@H](CCCCN)NC(=O)[C@H](CCCCN)NC(=O)[C@H](CCC(=O)O)NC(=O)[C@H](C)N)C(=O)N[C@@H](CCC(=O)O)C(=O)N[C@@H](Cc1c[nH]cn1)C(=O)N[C@@H](Cc1ccccc1)C(=O)N[C@@H](CCCNC(=N)N)C(=O)N[C@@H](Cc1c[nH]c2ccccc12)C(=O)NCC(=O)N[C@@H](CO)C(=O)N1CCC[C@H]1C(=O)N1CCC[C@H]1C(=O)N[C@@H](CCCCN)C(=O)N[C@@H](CC(=O)O)C(=O)O` [β-MSH], the “Activation (cAMP release) in words” value at D122A-MC4R (Rm2) (Rm2, increasing concentrations) was “no activation”; at L106P-MC4R (Rm1) (Rm1, increasing concentrations) it was “no activation”; on wild-type MC4R [3] (WT MC4R, increasing concentrations), “full activation”.
